According to patent publication US11180791B2, “MYO1A for predicting conversion of acute pain into chronic pain and use of MYO1A for therapy of pain” (UNIVERSITE D'AIX-MARSEILLE, priority 2016, dated 2021):
Entries after “also recorded” stand apart in the source; their conditions may differ.

Experiments:
WT and Myo1a KO mice [1] = assay: Spared nerve injury (SNI) neuropathic pain model, mechanical thresholds (Von Frey, up-down); type: in vivo; conditions: for reversal of SNI-induced mechanical hypersensitivity: both genotypes (WT and Myo1a KO), i.t 10 nmol SNC80, 0.2 nmol DAMGO, 0.1 μg baclofen, 2 μg TAFA4, 40 μg taurine, i.p 3 mg/kg pregabalin
Procedure: (A-D) Mechanical responses of WT and KO mice following SNI surgery and i.t administration at indicated time-points of 10 nmol of SNC80, 0.2 nmol of DAMGO (A), 0.1 μg of baclofen, 2 μg of TAFA4 (n=6 mice per genotype) (B), 40 μg of taurine, i.p administration of 3 mg/kg of pregabalin (n=8 mice per genotype) (C) and i.t administration of 0.15 μg of muscimol (n=8 mice per genotype) (D).
(§1) SNC80 (Tocris Bioscience) was dissolved in a 100 mM HCl solution, DAMGO (Sigma Aldrich) was dissolved in saline (0.9% NaCl), Baclofen (Sigma Aldrich) was dissolved in H2O (pH7.6), recombinant human TAFA4 (R&D Systems) was dissolved in saline, Diazepam (DZP, Roche) was dissolved in 10% dimethyl sulfoxide (DMSO)/90% saline, Muscimol (Tocris Bioscience), Taurine (Sigma Aldrich), Bicuculline (Sigma Aldrich) and Pregabalin (Sigma Aldrich) were dissolved in Phosphate Buffer (PB, 50 mM, pH 7.4).
(§2) Except for pregabalin, all drugs were administrated via intratechal (i.t) injection. Pregabalin was injected intra-peritoneally (i.p).
(§3) All behavioral analyses were conducted on 8-12 weeks old Myo1a KO and WT males. All experiments were carried at room temperature (˜22° C.). Animals were acclimated for one hour to their testing environment prior to all experiments. Experimenters were blind to the genotype of the mice during testing. All error bars represent SEM. All statistical analysis was carried using Two Way Repeated Measures ANOVA followed by Bonferroni's post-hoc test. Openfield, Rotarod, Hot plate and Formalin tests were carried as described in Gaillard et al., 2014 (Gaillard et al., 2014).
(§4) Mechanical thresholds of the plantar surface were determined using Von Frey's filaments with the up-down method (Chaplan et al., 1994), previously as described (Gaillard et al., 2014) prior to and at several time-points after inflammation, neuropathy and paw-incision surgery.
Spared nerve injury surgery was performed as described (Shields et al., 2003). Briefly, mice were anesthetized with a mix of ketamine/xylazine and an incision was made through the skin and thigh muscle at the level of the trifurcation of the sciatic nerve. The common sural and peroneal nerves were ligated using a 6.0 silk filament (Ethicon, Piscataway, N.J., USA) and transected, while leaving the tibial nerve intact. After surgery, the animals were allowed to recover in a warming chamber, and then they were returned to their home cages. Mechanical thresholds were determined at days 7, 9 and 14 post-surgery, before and after drug administration.

WT and Myo1a KO mice [2] = assay: Zymosan-A induced inflammatory pain model, mechanical thresholds (Von Frey, up-down); type: in vivo; conditions: for reversal of zymosan-induced mechanical hypersensitivity: i.t 0.15 μg muscimol, 0.09 mg/kg DZP
Procedure: (E-G) Mechanical responses of WT and KO mice following zymosan-induced inflammation (n=9 mice per genotype) (E) and i.t administration at indicated time-points of 0.15 μg of muscimol, 10 nmol of SNC80 (n=9 mice per genotype) (F) and 0.09 mg/kg of DZP (G) (n=7 mice per genotype). Data are presented as mean±SEM for each group (*p<0.05; **p<0.01; ***p<0.001; ns: non-significant).
as §1, §2, §3, §4
20 μl of a solution containing 1% carrageenan in H2O (weight/vol, Sigma) or 20 μl of a solution containing 0.06 mg Zymosan-A in 0.9% NaCl (weight/vol, Sigma), were injected subcutaneously into the plantar side of the left hindpaw, using a 30 G needled syringe.
For carrageenan-induced inflammation, mechanical thresholds were determined prior to inflammation and at several time-points (see legend) starting from 1 hour and up to 60 days after inflammation. For zymosan inflammation, mechanical thresholds were measured prior to injection, at day 1 and at several time-points (see legend) up day 60. In addition, mechanical thresholds in the zymosan model were measured before inflammation, at day 1 and day 2, before and after drug administration.

laminae II neurons = assay: Whole-cell patch-clamp recording of spontaneous EPSC in spinal cord slices; type: cell-based, mice
Procedure: (C-F) Whole cell recordings of spontaneous EPSC in laminae II interneurons after Musc application in naïve (C-D) and in zymosan-inflamed WT and KO mice (E-F).
Left panels: representative traces of EPSC obtained under ACSF (black traces), following superfusion of 5 μM Musc (blue traces) and during wash (brown traces).
Middle panels: Cumulative distribution of EPSC intervals (in seconds) for the experiments shown in the left panels. Note the shift of the Musc/blue curves towards the left (C, D, E middle panels), indicating a reversible increase in EPSC frequency.
Right panels: Normalized EPSC frequency (mean±SEM) under ACSF, following superfusion of 5 μM Musc and during wash. Note the absence of effect of Musc in slices from zymosan inflamed mice. The number of recorded cells is indicated in the right panels (*p<0.05; **p<0.01; ns: non-significant). (See also FIG. 8).
Transverse spinal cord slices with attached dorsal roots from juvenile (P24 to P45) Myo1a KO and WT mice were prepared for whole-cell recording. Briefly, the animals were anesthetized using Pentobarbital (200 mg/kg), perfused with ice cold oxygenated low calcium artificial cerebrospinal fluid (ACSF; in mM: NaCl 101; KCl 3.8; MgCl2 18.7, MgSO4 1.3; KH2PO4 1.2; HEPES 10; CaCl2 1; Glucose 1), and then beheaded. The vertebral column and surrounding muscles were quickly removed and immersed in ice cold oxygenated ACSF. Following laminectomy, the spinal cord was gently removed and its lumbar part was placed into a small 3% agarose block. Spinal slices (300 μm thick) were cut using a Leica VTS1000 vibratome, and transferred in warm (31° C.) ACSF (in mM: NaCl 130.5; KCl 2.4; CaCl2 2.4; NaHCO3 19.5; MgSO4 1.3; KH2PO4 1.2; HEPES 1.25; glucose 10; pH 7.4) equilibrated with 95%02-5% CO2 for at least one hour before starting patch clamp recordings. Spinal slices were placed in a recoding chamber bathed with warmed (31° C.) ACSF Electrophysiological measurements were performed under the control of an Olympus BX51 microscope using a multiclamp 2B (Molecular devices). Patch pipettes ([…]) were filled with C-based pipette solution (in mM: CsMethaneSulfonate 120; CsCl 20; CaCl2 0.1; MgCl2 1.3; EGTA 1; HEPES 10; GTP 0.1; cAMP 0.2; Leupeptin 0.1; Na2ATP 3; D-Manitol 77; pH 7.3). A glass suction electrode connected to a Master 8 (A.M.P. Instrument Ltd) stimulator was used to stimulate dorsal roots. Typically, a pair of high duration (500 μs) high intensity stimulations (350 μA) was used to recruit most primary afferent fibers in the recorded slice. All drugs were purchased from Sigma. Statistical comparison of EPSC frequencies was assessed for each cell using Kolmogorov-Smirnov test.

Molecule: CC(C)C[C@H](CN)CC(=O)O [pregabalin]
- reversal of injury-induced mechanical hypersensitivity (conclusions summary) (WT and Myo1a KO mice [1]; Myo1a KO mice): transiently reversed
- reversal of SNI-induced mechanical hypersensitivity (WT and Myo1a KO mice [1]): significantly reversed

Molecule: C=CCN1C[C@H](C)N([C@H](c2ccc(C(=O)N(CC)CC)cc2)c2cccc(OC)c2)C[C@H]1C [SNC80]
- reversal of SNI-induced mechanical hypersensitivity (WT and Myo1a KO mice [1]): significantly reversed
- reversal of zymosan-induced mechanical pain (WT and Myo1a KO mice [2]; both genotypes, i.t 10 nmol SNC80): strongly reversed

Molecule: NCc1cc(=O)[nH]o1 [muscimol]
- reversal of injury-induced mechanical hypersensitivity (conclusions summary) (WT and Myo1a KO mice [1]; Myo1a KO mice): not
- reversal of SNI-induced mechanical pain (WT and Myo1a KO mice [1]; Myo1a KO mice, i.t 0.15 μg muscimol): completely failed to reverse; also recorded: totally insensitive
- reversal of zymosan-induced mechanical hypersensitivity (WT and Myo1a KO mice [2]; Myo1a KO mice): had no effect
- reversal of zymosan-induced mechanical hypersensitivity (WT and Myo1a KO mice [2]; WT mice): strongly reversed
- sEPSC frequency (laminae II neurons; naïve WT mice, bath application of 5 μM muscimol): significant increase
- increase in sEPSC frequency (laminae II neurons; naïve slices from Myo1a KO mice, 5 μM muscimol): 544%
- sEPSC frequency, effect relative to naïve WT (laminae II neurons; slices from WT mice inflamed with zymosan, 5 μM muscimol): almost doubled
- sEPSC frequency (laminae II neurons; slices from zymosan inflamed Myo1a KO mice, 5 μM muscimol): had no effect

Molecule: NCC(CC(=O)O)c1ccc(Cl)cc1 (stereo not shown) [baclofen]
- reversal of injury-induced mechanical hypersensitivity (conclusions summary) (WT and Myo1a KO mice [1]; Myo1a KO mice): transiently reversed
- reversal of SNI-induced mechanical hypersensitivity (WT and Myo1a KO mice [1]): significantly reversed

Molecule: NCCS(=O)(=O)O [taurine]
- reversal of injury-induced mechanical hypersensitivity (conclusions summary) (WT and Myo1a KO mice [1]; Myo1a KO mice): transiently reversed
- reversal of SNI-induced mechanical hypersensitivity (WT and Myo1a KO mice [1]): significantly reversed

Molecule: C[C@@H](NC(=O)[C@@H](N)Cc1ccc(O)cc1)C(=O)NCC(=O)N(C)[C@@H](Cc1ccccc1)C(=O)NCCO [DAMGO]
- reversal of SNI-induced mechanical hypersensitivity (WT and Myo1a KO mice [1]): significantly reversed

Molecule: CN1C(=O)CN=C(c2ccccc2)c2cc(Cl)ccc21 [diazepam]
- reversal of zymosan-induced mechanical hypersensitivity (WT and Myo1a KO mice [2]; Myo1a KO mice, 0.09 mg/kg): had no effect and not
- reversal of zymosan-induced mechanical hypersensitivity (WT and Myo1a KO mice [2]; Myo1a KO mice, listed as DZP, 0.09 mg/kg): totally insensitive
- reversal of zymosan-induced mechanical hypersensitivity (WT and Myo1a KO mice [2]; WT mice): strongly reversed

Molecule: TAFA4: recombinant human TAFA4 (R&D Systems), a chemokine-like protein
- reversal of injury-induced mechanical hypersensitivity (conclusions summary) (WT and Myo1a KO mice [1]; Myo1a KO mice): transiently reversed
- reversal of SNI-induced mechanical hypersensitivity (WT and Myo1a KO mice [1]): significantly reversed
